From paper PMC10976160, “Comparative Pharmacokinetics Research of 13 Bioactive Components of Jieyu Pills in Control and Attention Deficit Hyperactivity Disorder Model Rats Based on UPLC-Orbitrap Fusion MS” (Molecules, 2024)
Like-named read-outs stand apart in the source and are kept apart here. Values belong to the compound of their own block, whether it stands above or below them.

How the values were obtained:
[1] = Pharmacokinetics in ADHD model rats after gavage of JYPs; type: in vivo, SHR rats (ADHD model); details: for peak time / half-life: ADHD model rats, oral JYPs; for removed within 12 h: ADHD rats (as printed, in the control-group section); for half-life: male, SHR, plasma
Procedure: Based on the established analytical method for plasma samples, a pharmacokinetic study was conducted on 13 constituents in the plasma of ADHD model rats after gavage of JYPs (Figure 3). The linearity of ln(AUC0-t)–ln(dose) and ln(Cmax)–ln(dose) was analyzed in the same way.
(§1) For the control experiment, healthy male Sprague Dawley (SD) rats of SPF grade ([…] ± 20 g) were purchased from Sipeifu (Beijing) Biotechnology Co., Ltd. (Beijing, China), Animal Quality Certificate No. 110324220102348616. For the ADHD model rats, healthy male SHR rats of SPF grade, weighing 220 ± 20 g, were purchased from SBF (Beijing) Biotechnology Co., Ltd. (Beijing, China), License No. SCXK (Yu) 2019-0010. The animals were accommodated in the Animal Center of Henan University of Traditional Chinese Medicine, which successfully underwent an ethical audit with ethics number DWLL202208003. The animals were bred under controlled conditions at a temperature of 24 °C and a relative humidity of 50 ± 2%. Before the experiment, the animals abstained from eating for 12 h and had unrestricted access to water. The feeding and experimental research conducted on the experimental animals adhered to the laws outlined in the Management of Experimental Animals in Henan Province.
(§2) JYPs were ground into a fine powder and sieved through 60-mesh sieves; then, 20 g of fine JYP powder was taken, having been weighed precisely. A precise volume of 50 mL of pure water was added and mixed well to prepare a 0.4 g/mL suspension solution of JYPs, which was then stored in the refrigerator at 4 °C.
(§3) This study involved 24 healthy male SD rats with a body mass of 220 ± 20 g and 24 healthy male ADHD rats with a body mass of 220 ± 20 g. Subjects abstained from food for a duration of 12 h before the experiment and consumed water without restriction. Both kinds of rats were randomly divided into four groups: a blank group, given an equal dose of water intragastrically, and 3 different administration groups: rats given the equivalent human dose of JYPs by gavage in doses of 1.080 g/kg/d, 2.160 g/kg/d, and 4.320 g/kg/d. Tail vein blood was collected at 0.083, 0.25, 0.5, 0.75, 1, 1.5, 2, 3, 4, 6, 8, 12, 18, and 24 h after dosing. About 0.5 mL of blood was collected in sodium heparin centrifugal tubes, then centrifuged at 4 °C for 10 min at a speed of 3500r/min. We took the upper layer and placed it at −80 °C for preservation.
(§4) We took 200 μL of plasma, added 600 μL of methanol solution and 50 μL of internal standard (100 ng/mL), and subjected it to shaking for 5 min, followed by centrifugation at 4 °C at 12,000 r/min for 10 min. The supernatant was collected and allowed to dry, then reconstituted with 50 μL of 50% methanol and centrifuged at 4 °C at 14,000 r/min for a further 10 min. The supernatant after this process was taken as the test solution. A volume of 5 μL was used for UPLC-MS analysis. The drug concentration in plasma was calculated with the aid of the internal standard.
Chromatographic conditions: Hypersil GOLD (100 × 2.1 mm, 1.9 μm) column; column temperature 35 °C; mobile phase acetonitrile (A)/0.1% formic acid aqueous solution (B); gradient elution; gradient elution program: 0–0.5 min (95% B–95% B), 0.5–8 min (95% B–50% B), 8–14 min (50% B–20% B), 14–20 min (20% B–5% B), 20–22 min (5% B–5% B), 22–25 min (95% B–95% B); flow rate 0.2 mL/min; injection volume 5 μL. The ion source was electrospray ionization (ESI), with positive and negative ion mode spray voltages of 3.50 and 3.0 kV, an ion transfer tube temperature of 300 °C, nitrogen as the carrier gas, a sheath gas pressure of 35 arb, an auxiliary gas pressure of 8 arb, and an auxiliary heater temperature of 275 °C.

[2] = Pharmacokinetics in control rats after gavage of JYPs; type: in vivo, Sprague Dawley (SD) rats; details: for half-life / Tmax / AUC(0-inf) / AUC(0-t) / Cmax / MRT last / MRT inf: male, rat, plasma; for Tmax: po; for MRT last: read-out: MRT(0-t); for MRT inf: read-out: MRT(0-∞)
From the text: According to the established method for the analysis of serum biological samples, the pharmacokinetics of various components of rat serum were investigated after the administration of different dosages of JYPs to control rats.
as §1, §2, §3, §4
Chromatographic conditions: Hypersil GOLD (100 × 2.1 mm, 1.9 μm) column; column temperature 35 °C; mobile phase acetonitrile (A)/0.1% formic acid aqueous solution (B); gradient elution; gradient elution program: 0–0.5 min (95% B–95% B), 0.5–8 min (95% B–50% B), 8–14 min (50% B–20% B), 14–20 min (20% B–5% B), 20–22 min (5% B–5% B), 22–25 min (95% B–95% B); flow rate 0.2 mL/min; injection volume 5 μL.

[3] = Sprague Dawley, oral JYPs, range over compounds and doses, read-out: half-life (t1/2)
[4] = Sprague Dawley, oral JYPs, read-out: peak time (Tmax)
[5] = Sprague-Dawley, 1.08 g/kg/day, oral JYPs low dose 1.080 g/kg/d (1st of 3 values)
[6] = Sprague-Dawley, 2.16 g/kg/day, oral JYPs medium dose 2.160 g/kg/d (2nd of 3 values)
[7] = Sprague-Dawley, 4.32 g/kg/day, oral JYPs high dose 4.320 g/kg/d (3rd of 3 values)
[8] = oral JYPs high dose 4.320 g/kg/d (3rd of 3 values)
[9] = oral JYPs low dose 1.080 g/kg/d (1st of 3 values)
[10] = oral JYPs medium dose 2.160 g/kg/d (2nd of 3 values)

- peak time [1]: less than 1 h
- removed within 12 h [1]: approximately 80%
- Tmax, model rats compared with control rats ([1]; high-dose group): significantly shorter
- Cmax, model rats compared with control rats ([1]; middle- and high-dose administration groups): significantly greater
Structure (SMILES): CC12CC(O)C3CC1(OC1OC(CO)C(O)C(O)C1O)C3(COC(=O)c1ccccc1)C(=O)O2 (stereo not shown) [Albiflorin]

- half-life [2, 3]: 9.53 to 16.8 h
- Tmax [2, 4]: < 1 h
Structure (SMILES): COc1cc(/C=C/C(=O)O)ccc1O [Ferulic acid]

- half-life [2, 3]: 14.4 to 24 h
- Tmax [2, 4]: < 2 h
- AUC(0-inf) [2, 5]: 25.2 ± 7.16 ng·h/mL
- AUC(0-t) [2, 5]: 12.9 ± 4.96 ng·h/mL
- Cmax [2, 5]: 1.79 ± 0.66 ng/mL
- MRT last [2, 5]: 9.51 ± 1.01 h
- MRT inf [2, 5]: 22.9 ± 7.04 h
- half-life ([2]; Sprague-Dawley, 1.08 g/kg/day, oral JYPs low dose 1.080 g/kg/d (1st of 3 values), read-out: t1/2 (converted)): 14.4 ± 4.36 h
- AUC(0-inf) [2, 6]: 34.2 ± 5.08 ng·h/mL
- AUC(0-t) [2, 6]: 21.5 ± 2.97 ng·h/mL
- Cmax [2, 6]: 2.86 ± 0.52 ng/mL
- MRT last [2, 6]: 9.23 ± 0.46 h
- MRT inf [2, 6]: 24.1 ± 8.96 h
- half-life ([2]; Sprague-Dawley, 2.16 g/kg/day, oral JYPs medium dose 2.160 g/kg/d (2nd of 3 values), read-out: t1/2 (converted)): 16.4 ± 7.3 h
- AUC(0-inf) [2, 7]: 59.8 ± 23.1 ng·h/mL
- AUC(0-t) [2, 7]: 36.7 ± 11.3 ng·h/mL
- Cmax [2, 7]: 4.6 ± 2.01 ng/mL
- MRT last [2, 7]: 8.92 ± 1.16 h
- MRT inf [2, 7]: 31.2 ± 38.1 h
- half-life ([2]; Sprague-Dawley, 4.32 g/kg/day, oral JYPs high dose 4.320 g/kg/d (3rd of 3 values), read-out: t1/2 (converted)): 22.1 ± 26.9 h
- Tmax ([2]; Sprague-Dawley, 1.08 g/kg/day, oral JYPs low dose 1.080 g/kg/d (1st of 3 values), read-out: Tmax): 1.17 ± 0.41 h
- Tmax ([2]; Sprague-Dawley, 2.16 g/kg/day, oral JYPs medium dose 2.160 g/kg/d (2nd of 3 values), read-out: Tmax): 0.92 ± 0.13 h
- Tmax ([2]; Sprague-Dawley, 4.32 g/kg/day, oral JYPs high dose 4.320 g/kg/d (3rd of 3 values), read-out: Tmax): 1.67 ± 0.52 h
- AUMC(0-t) [2, 8]: 323.93± 97.01 ng/mL*(h)²
- AUMC(0-ꝏ) [2, 8]: 2493.49± 4004.18 ng/mL*(h)²
- Clearances [2, 8]: 1455.57 ± 663.81 mL/h
- Vss [2, 8]: 33463.62 ± 24837.03 mL
- AUMC(0-t) [2, 9]: 150.01± 45.26 ng/mL*(h)²
- AUMC(0-ꝏ) [2, 9]: 584.44± 254.39 ng/mL*(h)²
- Clearances [2, 9]: 794.02 ± 199.77 mL/h
- Vss [2, 9]: 17878.07 ± 6212.70 mL
- AUMC(0-t) [2, 10]: 197.79±26.58 ng/mL*(h)²
- AUMC(0-ꝏ) [2, 10]: 849.62± 407.65 ng/mL*(h)²
- Clearances [2, 10]: 1123.37 ± 161.30 mL/h
- Vss [2, 10]: 26341.48 ± 7666.95 mL
Structure (SMILES): CCCC=C1OC(=O)C2=C1CCC1C3C=C4C(=O)OC(=CCCC)C4(CC3)C21 (stereo not shown) [Levistilide A]

- half-life [2, 3]: 9.53 to 16.8 h
- Tmax [2, 4]: < 1 h
- peak time [1]: less than 1 h
- AUC(0-t), ADHD rats compared with control rats ([1]; all dosages): significantly lower
Structure (SMILES): O=C1C[C@@H](c2ccc(O)cc2)Oc2cc(O)ccc21 [Liquiritigenin]

- half-life [2, 3]: 9.53 to 16.8 h
- Tmax [2, 4]: < 1 h
- peak time [1]: less than 1 h
Structure (SMILES): O=C1C[C@@H](c2ccc(O[C@@H]3O[C@H](CO)[C@@H](O)[C@H](O)[C@H]3O)cc2)Oc2cc(O)ccc21 [Liquiritin]

- Tmax [2, 4]: < 1 h
- peak time [1]: less than 1 h
- removed within 12 h [1]: approximately 80%
Structure (SMILES): C[C@@]12C[C@@]3(O)O[C@@H](O1)[C@]1(COC(=O)c4ccccc4)[C@H]3C[C@@]12O[C@@H]1O[C@H](CO)[C@@H](O)[C@H](O)[C@H]1O [Paeoniflorin]

- half-life [2, 3]: 7.61 to 12.2 h
- Tmax [2, 4]: < 4 h
- peak time [1]: less than 4 h
- half-life ([1]; rat): < 10.3 h
- Cmax, ADHD rats compared with control rats ([1]; rat, in vivo): significantly higher
Structure (SMILES): C=C(CC[C@@H](C(=O)O)[C@H]1[C@H](O)C[C@@]2(C)C3=CC[C@@H](C(=C)C)[C@](C)(CCC(=O)O)C3=CC[C@]12C)C(C)C [Poricoic acid A]

- half-life [2, 3]: 7.61 to 12.2 h
- Tmax [2, 4]: < 4 h
- peak time [1]: less than 4 h
- half-life ([1]; rat): < 10.3 h
- t1/2, pathological condition compared with control rats ([1]; rat, in vivo): shorter
Structure (SMILES): C=C(C)[C@@H]1CC=C2C(=CC[C@]3(C)[C@@H]([C@@H](CCC=C(C)C)C(=O)O)[C@H](O)C[C@@]23C)[C@@]1(C)CCC(=O)O [Poricoic acid B]
